From patent US20240228542A1, “LYTIC DOMAIN FUSION CONSTRUCTS, CHECKPOINT INHIBITORS, AND METHODS OF MAKING AND USING SAME” (A28 Therapeutics Inc., priority 2020, published 2024)
“And” between values parts separate entries of the source, which are not always exact repeats. Equal values may be shown once. Read-outs that look alike come from different tables or passages of the source.

Assays:
MDA-MB-435S cells = assay: Time course of cytotoxicity in MDA-MB-435S cells (MTT); type: cell-based, human; conditions: for IC50: MDA-MB 435S; for incubation time to maximal efficacy: MDA-MB-435S cells
Excerpt: (§1) Membranes of non-cancerous cell lines are neutral and are resistant to cytolytic peptides, in contrast to cancer cell lines, which have a high phosphatidic acid content in their outer membrane.
(§2) The melanoma cell line studied was MDA-MB-435S (estrogen receptor alpha negative), breast cancer cell lines MCF-7 and T47D (estrogen receptor alpha positive), ovarian cancer cell lines (OVCAR-3 and SKOV-3), prostate cancer (LNCaP), the non-malignant breast epithelial cell line MCF-10A and the mouse fibroblast cell line NIH:3T3.
(§3) Cells were seeded into 96 well plates at a density of 10,000 cells/well. […] Controls contained USP saline or 0.1% TritonX-100™ as reference for 0 and 100% cell death, respectively. Incubations were terminated by removing the culture media after 2 minutes, 5 minutes, 15 minutes, 30 minutes, 1 hour, 2 hours, 6 hours, 24 and 48 hours. Cell viability was assessed through formazan conversion assay (MTT assay, (CellTiter 96 Aqueous One, Promega # G3582). Formazan conversion was determined using a BioRad Benchmark Plus microplate spectrophotometer dual wavelengths at 490/630 nm at room temperature).
(§4) Data were calculated as fraction of absorption in TritonX-100™ containing wells representing 100% cell death versus 0% cell death in saline containing wells. Cytotoxicity was determined as ICso using GraphPad Prism version 5.01 for Windows, GraphPad Software, San Diego California USA according to the program for sigmoidal dose response with variable slope using constraint values of 0 and 100%. 4 wells of each individual set of two 96 well plates were compared and analyzed. Statistical analysis for significance was determined by a two-tailed Student's T-test.

MCF-7 cells = assay: Time course of cytotoxicity in MCF-7 cells (MTT); type: cell-based, human; conditions: for incubation time to maximal efficacy: MCF-7 cells
Excerpt: as §1, §2, §3, §4

SKOV-3 cells = assay: Time course of cytotoxicity in SKOV-3 cells (MTT); type: cell-based, human
Excerpt: as §1, §2, §3, §4

MDA-MB-435S xenograft = assay: MDA-MB-435S xenograft, multiple dose regimen; type: in vivo, Nu/Nu mice; conditions: for tumor free mice: multiple intravenous injections
Protocol: In order to determine the minimal effective dose necessary to reduce MDA-MB-435S xenograft weights in a multiple dose regimen, Nu/Nu female mice, outbred strain, age 8 weeks (Charles River), were injected (s.c.) into the interscapular region with a MDA-MB-435S (passage # 253)/Matrigel suspension (2×10^6 cells/mouse) as previously described above. Phor 18-LHRH (338613) (ID: 338613 lot #P080401) (0.002, and 0.2 mg/kg) were reconstituted in USP saline prior to dosing. The doses were given as a single bolus intravenous injection via lateral tail vein on days 15, 16, 17, 20, 21, 22, 23, 27, 28, 29, 30, 33, 34, 35, 36, 37, 38, 40, 41, 42 after tumor cell inoculation. Saline injections served as control groups.
Each treatment group consisted of 16 mice. During the entire study tumor volumes were recorded twice weekly. Final necropsy was conducted on day 45 after tumor cell injection. […] due to occlusion of the tail vein in most mice. At study endpoint body weight, tumor weights were determined and fixed in phosphate buffered 10% formalin.

PC-3 xenograft = assay: PC-3 prostate cancer xenograft; type: in vivo, Nu/Nu mice; conditions: for tumor growth: PC-3 xenograft, CLIP71 5 mg/kg
Protocol: In brief, Nu/Nu male mice, outbred strain, age 6 weeks (Charles River) were injected subcutaneously with a PC-3 cells/Matrigel suspension (1×10^6 cells/mouse). Treatment was started on day 15 after tumor cell injection when the tumors were established and continued on days 22 and 29. The doses for the 3 weekly injections were 2, 0.2 and 0.02 mg/kg body weight, given as a bolus single intravenous injection via lateral tail vein.
A group of 12 tumor bearing mice was sacrificed on day 15 and served as baseline group. All mice were necropsied 35 and 36 days after tumor cell injection. Tumor volumes and bodyweights were recorded twice weekly during the study, as well as overall veterinarian examination of mice was conducted.
Primary tumors, liver, kidney, pancreas, heart, lung, and spleen were collected, fixed in formalin and prepared for histological evaluation. Tumor weights were measured at necropsy, part of the tumors were frozen at −80° C. for LH/CG and LHRH receptor assay determination.

MCF-7 xenograft = assay: MCF-7 breast cancer xenograft; type: in vivo, nude mice; conditions: MCF-7, 2 × 3 wk, 19 d
Protocol: In vivo efficacy studies were conducted as monotherapy, or a combination therapy with standard of care treatments in nude mice bearing human melanoma xenografts; MDA-MB-435S.luc (s.c.), human breast cancer xenografts MCF-7 (estrogen receptor alpha positive), human ovarian cancer xenografts; OVCAR-3, (s.c.), human prostate cancer xenografts; PC-3 (androgen receptor negative).
Mice were sacrificed one week after the last injection and blood collected for chemistry panel, tumor weights and body weights were recorded. Part of the tumors were fixed in PBS buffered 10% formalin for histological evaluation.

ID8 = assay: Cytotoxicity in ID8 murine ovarian cancer cells (24 h); type: cell-based; conditions: ID8, 24 h; read-out: In vitro activity (IC50)
Protocol: Murine ovarian cancer cell lines (ID8, IG10, IF5, and 2Cl2) were grown in RPMI 1640 media with 10% Fetal Bovine Serum. Cells were typically seeded (3000 cells per well) into 96 well plates and media was replaced after 48 hours of incubation. […] Phor18-LHRH was provided in lyophilized form was dissolved in saline and added to cells. The duration of incubation was 24 h at 37° C. Cell viability was assessed after 24 hours using a luminometric assays (Promega, CellTiter-0Glo 2.0, G9243). Controls contained saline or 0.1% triton as reference for 0 and 100% cell death, respectively.
Data were processed and analyzed using GraphPad Prism version 7.00 for Windows (GraphPad Software, San Diego California). Statistical analysis for significance was determined by a two-tailed Student's T-test. Each study was conducted to achieve an […] of at least 6.
In vitro activities were expressed as IC50 values for each cell line, time point and compound tested that were calculated using the Hill equation (Graph Pad Prizm software).

Sequence | IC50 (MDA-MB-435S cells; 0.5 hour) | IC50 (MDA-MB-435S cells; 1 hour) | incubation time to maximal efficacy (MDA-MB-435S cells) | IC50 (MCF-7 cells; MCF-7 (p152), read-out: IC50 with increasing incubation time) | incubation time to maximal efficacy (MCF-7 cells) | incubation time to maximal efficacy (SKOV-3 cells; SKOV-3 cells) | tumor free mice (MDA-MB-435S xenograft; 0.002 mg/kg) | tumor free mice (MDA-MB-435S xenograft; 0.2 mg/kg) | histological examination of H&E stained tumors (MDA-MB-435S xenograft; 0.002 and 0.2 mg/kg, multiple injection regimen) | lowest concentration with tumor volume reduction compared to saline controls and CLIP71 (PC-3 xenograft; 22 days after tumor cell injection, p<0.001) | Median Tumor Weight vs Baseline p < 0.05 (doses) (PC-3 xenograft; PC-3, 1 × 3 wk, 21 d) | tumor growth (PC-3 xenograft) | Median Tumor Weight vs Saline P < 0.05 (dose, growth delay) (MCF-7 xenograft) | IC50 (ID8) | IC50 (MDA-MB-435S cells; 24 hours) | IC50 (MDA-MB-435S cells; 48 hours) | IC50 (SKOV-3 cells; SKOV-3 (SKOV-3 and HEK 1A), 24 hours, read-out: IC50) | IC50 (SKOV-3 cells; SKOV-3 (p40), listed as CLIP71, read-out: IC50 with increasing incubation time)
KFAKFAKKFAKFAKKFAKQHWSYGLRPG [Phor18-LHRH] | 1.2 µM | 0.6 µM | 1 h and 0.5 to 1 h | 1.8 to 3.4 µM | 1 h and 0.5 to 1 h | 24 h | 6/23 | 1/20 | eradication of tumor cells | 0.002 mg/kg bodyweight | 0.2 | effective in arresting tumor growth | 0.02 mg/kg | 1.37 µM |  |  |  | 
KFAKFAKKFAKFAKKFAK [Phor18, reference compound] |  |  | 24 h |  | 24 h |  |  |  |  |  |  | tumor growth was observed |  |  | 55.1 µM | 3 µM | 11.8 µM | 86 µM and 96 µM and 53 µM and 50 µM
